Data on eleven compounds can be found in patent publication US9155795B2, “CXCR4 receptor compounds” (Anchor Therapeutics, Inc., priority 2010, dated 2015).

One series concerns male BALB/c mice. Description: Mobilization of polymorphonuclear leukocytes (PMNs) in mice. The format is in vivo. To be noted: 6.66 μmol/kg subcutaneous, blood 3 hours after injection. Here is the method: The effect of Compound 26 on mobilization of PMNs following subcutaneous administration was evaluated in mice. […] Louis, Mo.) was administered subcutaneously to 10 mice. […] Neutrophil and lymphocyte counts were determined using a Hemavet Model 950FS cell counter (Drew Scientific, Dallas, Tex.).

The target of another series is T1, CXCR4 (Homo sapiens, UniProt P61073).
T1 construct: CCRF-CEM cells, a human T-cell ALL line that endogenously expresses CXCR4; endogenous in cells; host or cells: CCRF-CEM (human T-cell acute lymphoblastic leukemia line)
T1 sequence (P61073 whole entry): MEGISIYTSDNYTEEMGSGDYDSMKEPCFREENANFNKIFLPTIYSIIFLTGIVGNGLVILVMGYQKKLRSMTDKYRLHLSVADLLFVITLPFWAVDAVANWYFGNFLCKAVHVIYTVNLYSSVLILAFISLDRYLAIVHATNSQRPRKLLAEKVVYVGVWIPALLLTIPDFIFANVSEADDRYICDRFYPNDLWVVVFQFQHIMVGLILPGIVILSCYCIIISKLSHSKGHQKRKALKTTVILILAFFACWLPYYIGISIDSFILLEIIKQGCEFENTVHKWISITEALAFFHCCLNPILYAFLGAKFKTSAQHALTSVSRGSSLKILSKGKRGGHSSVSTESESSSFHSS
Description: Calcium flux assay, agonist mode, Flexstation (CCRF-CEM cells). The format is cell-based. To be noted: for Emax: CCRF-CEM, percent of maximum response compared with SDF-1α, read-out: % Intrinsic Activity. The text has this: Calcium Flux Assay is one of the most popular cell-based GPCR functional assays. It most often uses calcium sensing fluorescent dyes such as fura2 AM, fluo-4 and Calcium-4 to measure changes in intracellular calcium concentration. It is used mainly to detect GPCR signaling via Gαq subunit. Activation of these Gq-coupled GPCRs leads to activation of phospholipase C, which subsequently leads to increase in inositol phosphate production. IP3 receptors on endoplasmic reticulum sense the change then release calcium into cytoplasm. Intracellular calcium binding to the fluorescent dyes can be detected by instruments that quantify fluorescent intensities, such as FLIPR Tetra, Flexstation (MDS) and FDSS (Hamamatsu). In addition, to assess Gq-couple receptor signaling, a calcium flux assay can also be used to study Gs and Gi couple receptors by co-expressing CNG (cyclic nucleotide gated calcium channel) or chimeric G-proteins (Gqi5, Gsi5 for example). Activation of some Gi-coupled receptors can also be detected by calcium flux assay via Gβγ mediated phospholipase C activation.
The calcium flux assay was used to assess the test compounds' ability to activate the CXCR4 receptor in CCRF-CEM cells (human T lymphoblasts from acute lymphoblastic leukemia). […] After dye loading by incubating with Calcium-4 dye at 37° C. for 1 hour, cell plates were read at 37° C. using the using the Flexstation 3 workstation. Receptor activation was assessed by measuring changes in fluorescent intensity after the addition of the test compounds or the reference agonist SDF-1α on the using the Flexstation 3 workstation. EC50
and percent intrinsic actively were derived from the data collected. Intrinsic activity refers to the efficacy of the test compound and is calculated as the percent of maximum response compared with the response of the reference standard (i.e., natural agonist, SDF-1α).
(A change in cytosolic calcium serves as a functional read-out for many receptors and channels.)

A short description of series [1]: Pharmacokinetic analysis in mice (plasma, LC/MS). The format is in vivo. As to conditions: male, mouse, in vivo, 2.5 umol/kg. On the procedure:
To determine the pharmacokinetic profile of the CXCR4 modulators, compounds were administered as single subcutaneous injection to 6-8 week old male mice at doses of either […] (three or four mice/group). […] Dosing of 0.5 μmol/kg or 1 μmol/kg were used for intravenous dosing. […] Mice were sacrificed and blood samples collected at 15 minutes, 30 minutes, 1 hour, 2 hours, 4 hours, 8 hours, and 24 hours after dosing. The concentration of compound in plasma samples was analyzed by LC/MS according to the method below.
To this, 5 μL of the analyte compound in AcN:H2O:FA (70:30:1%) of 100 μM concentration was added to get 5 μM concentration.
Serial calibration standards in plasma or plasma samples were transferred to clean labeled tubes and mixed with 3 volumes of acetonitrile with internal standard, tolbutamide, in order to precipitate proteins. The mixtures were vortexed and centrifuged at 12000 RPM (15320 g) for 10 minutes. Supernatants were transferred to HPLC injection vials or 96-well plates and 5 μL were injected into the LC-MS/MS system.
Noncompartmental pharmacokinetic analyses were performed using WinNonlin Professional (version 5.2) software (Pharsight, Cary, N.C.). The data were analyzed using the extravascular input model. For each subject, pharmacokinetic parameters were calculated individually as follows and then averaged. The maximum drug concentration in plasma, Cmax, and Tmax, the time to achieve Cmax, were calculated directly from the concentration-time curves. The area under the plasma concentration-time curve from hour 0 to the last measurable concentration in plasma, AUClast, was estimated by the linear trapezoidal rule. The area under the plasma concentration-time curve from hour 0 to infinity estimated using the following formula: AUCinf—obs=AUClast+Ct/Lambda_z, where Ct is the last measurable concentration in plasma, and Lambda_z is the terminal elimination rate constant estimated using log-linear regression during the terminal elimination phase. The number of points used in Lambda_z calculation was determined by visual inspection of the data describing the terminal phase and evaluation of the correlation coefficient associated with the regression line. T1/2, the terminal elimination half-life=ln(2)/Lambda_z. Mean residence time MRT, was calculated as following: MRT=(AUMCinf/AUCinf). Subcutaneous absorption bioavailability was calculated as the AUCinf following subcutaneous dosing divided by the AUCinf following intravenous dosing. Results were expressed as percentages.

Where a SMILES comes first, the peptide text is derived from it. [ ]: non-standard residue; d: D form. The star is where a group is joined. Ala(3-Me-diazirin-3-yl) = CC1(C[C@H](N)C(=O)O)N=N1; Palmitoyl = CCCCCCCCCCCCCCCC(=O)*; Hyp = O=C(O)[C@@H]1C[C@@H](O)CN1; Dap = NC[C@H](N)C(=O)O

For `c1cc(CN2CCCNCCNCCCNCC2)ccc1CN1CCCNCCNCCCNCC1` [AMD3100, reference compound], in the series on male BALB/c mice, the “Lymphocytes (×10^3 μl) Mean ± SD” value is reported as 8.76 ± 1.67 ×10^3 μl and the “PMNs (×10^3 μl) Mean ± SD” value is given as 7.83 ± 3.20 ×10^3 μl.
As to `CCCCCCCCCCCCCCCC(=O)NCC(=O)NCC(=O)N[C@@H](Cc1ccc(O)cc1)C(=O)N[C@@H](CCC(N)=O)C(=O)N[C@@H](CCCCN)C(=O)N[C@@H](CCCCN)C(=O)N[C@@H](CC(C)C)C(=O)N[C@@H](CCCNC(=N)N)C(=O)N1CCC[C@@H]1C(=O)N[C@@H](Cc1c[nH]c2ccccc12)C(=O)N[C@H](C(=O)N[C@@H](CC(=O)O)C(=O)N[C@@H](CCCCN)C(=O)N[C@@H](Cc1ccc(O)cc1)C(=O)N[C@@H](CCCNC(=N)N)C(=O)N[C@@H](CC(C)C)C(N)=O)[C@@H](C)O` [Compound 33] (Palmitoyl-GGYQKKLR[dP]WTDKYRL-NH2; C-terminus assumed), the Emax on CXCR4 is 93%.
For `CCCCCCCCCCCCCCCC(=O)NCC(=O)NCC(=O)N[C@@H](Cc1ccc(O)cc1)C(=O)N[C@@H](CCC(N)=O)C(=O)N[C@@H](CCCCN)C(=O)N[C@@H](CCCCN)C(=O)N[C@@H](CC(C)C)C(=O)N[C@@H](CCCNC(=N)N)C(=O)N1CCC[C@@H]1C(=O)N[C@@H](CN)C(=O)N[C@H](C(=O)N[C@@H](CC(=O)O)C(=O)N[C@@H](CCCCN)C(=O)N[C@@H](Cc1ccc(O)cc1)C(=O)N[C@@H](CCCNC(=N)N)C(=O)N[C@@H](CC(C)C)C(N)=O)[C@@H](C)O` [Compound 34] (Palmitoyl-GGYQKKLR[dP][Dap]TDKYRL-NH2; C-terminus assumed), the Emax on CXCR4 was 103%.
In the case of `CCCCCCCCCCCCCCCC(=O)NCC(=O)NCC(=O)N[C@@H](Cc1ccc(O)cc1)C(=O)N[C@@H](CCC(N)=O)C(=O)N[C@@H](CCCCN)C(=O)N[C@@H](CCCCN)C(=O)N[C@@H](CC(C)C)C(=O)N[C@@H](CCCNC(=N)N)C(=O)N1C[C@H](O)C[C@H]1C(=O)N[C@@H](Cc1c[nH]cn1)C(=O)N[C@H](C(=O)N[C@@H](CC(=O)O)C(=O)N[C@@H](CCCCN)C(=O)N[C@@H](Cc1ccc(O)cc1)C(=O)N[C@@H](CCCNC(=N)N)C(=O)N[C@@H](CC(C)C)C(N)=O)[C@@H](C)O` [Compound 35] (Palmitoyl-GGYQKKLR[Hyp]HTDKYRL-NH2; C-terminus assumed), at CXCR4, the Emax was 89.4%.
The same measure, in the same setting: the same measure for `CCCCCCCCCCCCCCCC(=O)NCC(=O)NCC(=O)N[C@@H](Cc1ccc(O)cc1)C(=O)N[C@@H](CCC(N)=O)C(=O)N[C@@H](CCCCN)C(=O)N[C@@H](CCCCN)C(=O)N[C@@H](CC(C)C)C(=O)N[C@@H](CCCNC(=N)N)C(=O)N1CCC[C@@H]1C(=O)N1C[C@H](O)C[C@H]1C(=O)N[C@H](C(=O)N[C@@H](CC(=O)O)C(=O)N[C@@H](CCCCN)C(=O)N[C@@H](Cc1ccc(O)cc1)C(=O)N[C@@H](CCCNC(=N)N)C(=O)N[C@@H](CC(C)C)C(N)=O)[C@@H](C)O` [Compound 36] (Palmitoyl-GGYQKKLR[dP][Hyp]TDKYRL-NH2; C-terminus assumed): 55.2%.
The EC50 is the concentration at which the effect is half-maximal. With `CCCCCCCCCCCCCCCC(=O)NCC(=O)NCC(=O)N[C@@H](Cc1ccc(O)cc1)C(=O)N[C@@H](CCC(N)=O)C(=O)N[C@@H](CCCCN)C(=O)N[C@@H](CCCCN)C(=O)N[C@@H](CC1(C)N=N1)C(=O)N[C@@H](CCCNC(=N)N)C(=O)N[C@@H](CO)C(=O)N[C@@H](C)C(=O)N[C@H](C(=O)N[C@@H](CC(=O)O)C(=O)N[C@@H](CCCCN)C(=O)N[C@@H](Cc1ccc(O)cc1)C(=O)N[C@@H](CCCNC(=N)N)C(=O)N[C@@H](CC(C)C)C(N)=O)[C@@H](C)O` [Compound 37] (Palmitoyl-GGYQKK[Ala(3-Me-diazirin-3-yl)]RSATDKYRL-NH2; C-terminus assumed), the Emax at CXCR4 was found to be 85.7%. Also, at CXCR4 (calcium flux), the EC50 turned out to be 71.1 nM.
In the case of `CCCCCCCCCCCCCCCC(=O)NCC(=O)NCC(=O)N[C@@H](Cc1ccc(O)cc1)C(=O)N[C@@H](CCC(N)=O)C(=O)N[C@@H](CCCCN)C(=O)N[C@@H](CCCCN)C(=O)N[C@@H](Cc1c[nH]cn1)C(=O)N[C@@H](CCCNC(=N)N)C(=O)N[C@@H](CO)C(=O)N[C@@H](C)C(=O)N[C@H](C(=O)N[C@@H](CC(=O)O)C(=O)N[C@@H](CCCCN)C(=O)N[C@@H](Cc1ccc(O)cc1)C(=O)N[C@@H](CCCNC(=N)N)C(=O)N[C@@H](CC(C)C)C(N)=O)[C@@H](C)O` [Compound 38] (Palmitoyl-GGYQKKHRSATDKYRL-NH2; C-terminus assumed), the Emax at CXCR4 is 86.8%.
Same read-out and setting: the value for `CCCCCCCCCCCCCCCC(=O)NCC(=O)NCC(=O)N[C@@H](Cc1ccc(O)cc1)C(=O)N[C@@H](CCC(N)=O)C(=O)N[C@@H](CCCCN)C(=O)N[C@@H](CCCCN)C(=O)N[C@H](CC(C)C)C(=O)N[C@@H](CCCNC(=N)N)C(=O)N[C@@H](CO)C(=O)N[C@@H](C)C(=O)N[C@H](C(=O)N[C@@H](CC(=O)O)C(=O)N[C@@H](CCCCN)C(=O)N[C@@H](Cc1ccc(O)cc1)C(=O)N[C@@H](CCCNC(=N)N)C(=O)N[C@@H](CC(C)C)C(N)=O)[C@@H](C)O` [Compound 39] (Palmitoyl-GGYQKK[dL]RSATDKYRL-NH2; C-terminus assumed) was 104%; that for `CCCCCCCCCCCCCCCC(=O)NCC(=O)NCC(=O)N[C@@H](Cc1ccc(O)cc1)C(=O)N[C@@H](CCC(N)=O)C(=O)N[C@@H](CCCCN)C(=O)N[C@@H](CCCCN)C(=O)N[C@@H](CC(C)C)C(=O)N[C@@H](CCCNC(=N)N)C(=O)N[C@@H](CO)C(=O)N[C@@H](C)C(=O)N[C@H](C(=O)N[C@@H](CC(=O)O)C(=O)N[C@@H](CCCCN)C(=O)N[C@@H](Cc1ccc(O)cc1)C(=O)N[C@@H](CCCNC(=N)N)C(=O)N[C@@H](CC(C)C)C(=O)N[C@@H](Cc1c[nH]cn1)C(N)=O)[C@@H](C)O` [Compound 40] (Palmitoyl-GGYQKKLRSATDKYRLH-NH2; C-terminus assumed) was 78.7%; that for `CCCCCCCCCCCCCCCC(=O)NCC(=O)NCC(=O)N[C@@H](Cc1ccc(O)cc1)C(=O)N[C@@H](CCC(N)=O)C(=O)N[C@@H](CCCCN)C(=O)N[C@@H](CCCCN)C(=O)N[C@@H](CC(C)C)C(=O)N[C@@H](CCCNC(=N)N)C(=O)N[C@H](C(=O)N[C@@H](C)C(=O)N[C@H](C(=O)N[C@@H](CC(=O)O)C(=O)N[C@@H](CCCCN)C(=O)N[C@@H](Cc1ccc(O)cc1)C(=O)N[C@@H](CCCNC(=N)N)C(=O)N[C@@H](CC(C)C)C(N)=O)[C@@H](C)O)[C@@H](C)O` [Compound 41] (Palmitoyl-GGYQKKLRTATDKYRL-NH2; C-terminus assumed) was 149%.
What is called bioavailability is dose-corrected exposure relative to a reference, in per cent. A low value points to little systemic uptake. For orientation: MRT inf means the average time that molecules of a dose stay in the body. For orientation: Tmax means the time at which the peak concentration occurs. A word on the half-life: it is the time in which the quantity being followed falls by half. High values mean slow loss, low ones fast loss. As for `CCCCCCCCCCCCCCCC(=O)N[C@@H](CCSC)C(=O)NCC(=O)N[C@@H](Cc1ccc(O)cc1)C(=O)N[C@@H](CCC(N)=O)C(=O)N[C@@H](CCCCN)C(=O)N[C@@H](CCCCN)C(=O)N[C@@H](CC(C)C)C(=O)N[C@@H](CCCNC(=N)N)C(=O)N[C@@H](CO)C(=O)N[C@@H](CCSC)C(=O)N[C@H](C(=O)N[C@@H](CC(=O)O)C(=O)N[C@@H](CCCCN)C(=O)N[C@@H](Cc1ccc(O)cc1)C(=O)N[C@@H](CCCNC(=N)N)C(=O)N[C@@H](CC(C)C)C(N)=O)[C@@H](C)O` [Compound 48] (Palmitoyl-MGYQKKLRSMTDKYRL-NH2), the bioavailability in series [1] was less than 30%. Moreover, in series [1] (sc), the mean residence time MRT inf amounted to 2.6 h, the time of peak concentration (Tmax) is 2 h and the half-life was 90 min.
